US12037324B2, “Biarylmethyl heterocycles” (Université de Montréal, priority 2016, dated 2024)
pEC50: −log10 of the molar value.

Assays:
Assay type in all cases: cell-based
AGTR1 = biological target: T1, AGTR1 (Homo sapiens, UniProt P30556); experiment: DiscoveRx β-arrestin2 recruitment assay (enzyme complementation, Pathunter CHO-K1 AGTR1 β-arrestin cell line); details: DiscoveRx β-arrestin2 recruitment; for DiscoveRx β-arrestin2 Ymax (%): maximal response
T1 construct: host or cells: Pathunter CHO-K1 AGTR1 β-arrestin cell line (CHO-K1)
T1 sequence (P30556 1-359): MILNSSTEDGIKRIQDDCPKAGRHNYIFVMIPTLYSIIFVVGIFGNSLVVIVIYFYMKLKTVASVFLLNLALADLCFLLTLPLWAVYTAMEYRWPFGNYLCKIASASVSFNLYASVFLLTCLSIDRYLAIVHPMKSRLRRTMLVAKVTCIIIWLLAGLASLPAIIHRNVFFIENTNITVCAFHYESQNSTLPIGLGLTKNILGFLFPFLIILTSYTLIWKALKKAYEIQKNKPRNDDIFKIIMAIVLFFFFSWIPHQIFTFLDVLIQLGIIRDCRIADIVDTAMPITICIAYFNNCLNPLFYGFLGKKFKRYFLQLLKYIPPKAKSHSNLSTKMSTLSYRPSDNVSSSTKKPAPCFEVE
Summary of the method: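 Chemiluminescent enzyme-complementation read-out of β-arrestin2 recruitment to AGTR1 in engineered CHO-K1 cells after 90 min compound exposure at 37° C. Values are 4-parameter logistic EC50s in agonist mode, IC50s in antagonist mode, with efficacy relative to the maximal All response.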

hAT1R [1] = biological target: T2, hAT1R (Homo sapiens, UniProt P30556); experiment: BRET Gq biosensor assay, agonist response, HEK293 cells; details: section of the 42nd table directly before the BRET P63 section
T2 sequence (P30556 1-359): T1 sequence (P30556 1-359)
Description: BRET β-arrestin2 and Gq Activation Assays
In another aspect of the invention, association of the ATIR with signaling proteins is assessed using bioluminescence resonance energy transfer assays (Stephane Angers, Ali Salahpour et al. 2002). This technology measures the association between bioluminescent and fluorescent protein tags.
Several of the plasmid constructs used in BRET experiments were previously described. Briefly, the coding sequence of β-arrestin2 was fused to Renilla luciferase II to generate β-arrestin2-Rluc (Quoyer, Janz et al. 2013). The membrane targeting motif from K-Ras, CAAX motif (GKKKKKKSKTKCVIM), was fused to Renilla GFP to create rGFP-CAAX plasmid (Namkung Y et al., Nat Commun (2016) 7, 12178). The Renilla luciferase II was inserted in the Gaq protein to generate Gaq-Rluc (Breton, Sauvageau et al. 2010). The Gγ1 protein was tagged with GFP10 to obtain GFP-Gyl, using the same strategy described previously for GFP-Gy2 (Gales, Rebois et al. 2005). The Gaq binding domain of the p63RhoGEF protein (amino acids 295-502) was fused to Renilla luciferase II to create P63-Rluc. Finally, the hAT1R plasmid construct encoding the receptor was generated by optimizing the coding sequence of human angiotensin II receptor (GeneOptimizer from ThermoFisher), and adding an artificial cleavable signal peptide from bovine prolactin ([…]) in N-terminus of the receptor to increase cell surface expression.
Gq Biosensor Assay HEK293 cells were cultured in DMEM supplemented with Penicillin-Streptomycin and 10% fetal bovine serum. Two days before the BRET experiment, HEK293 cells were transfected with hAT1R expression plasmid (200 ng/well) as well as Gaq-Rluc (100 ng/well), Gβ1 (375 ng/well) and GFP-Gγ1 (625 ng/well), using linear polyethylenimine 25 kDa (PEI) at a PEI:DNA ratio of 3:1. Transfected cells were directly seeded in 96-well plates, at a density of 35 000 cells per well, and maintained in culture for the next 48 h.
BRET experiments were carried out subsequently using the following procedures: cells were washed once with Tyrode's buffer (137 mM NaCl, 1 mM CaCl2, 0.9 mM KCl, […], 3.6 mM NaH2PO4, 5.5 mM glucose, 12 mM NaHCO3, and 25 mM HEPES, pH 7.4) and 90 μl of Tyrode's buffer was added to each well. Cells were equilibrated in their new buffer at room temperature for at least 30 minutes. Following the equilibration period, the coelenterazine substrate was first added to the cells, 10 μl per well of a 10×solution (prolume purple coelenterazine at a final concentration of 2 μM), immediately followed by compound addition using the HP D300 digital dispenser from Tecan (10 singlicate concentrations). Cells were incubated for 5 min at room temperature and BRET readings were then collected using a Synergy Neo Multi-Mode reader from BioTek with BRET2 filters 410/515, to record agonist response. […] A second reading was collected 5 min after this second addition, using the Synergy Neo Multi-Mode reader from BioTek with BRET2 filters 410/515, to record antagonist response. The BRET signal was determined by calculating the ratio of the light emitted by GFP (515 nm) over the light emitted by the Rluc (410 nm). To analyze agonist response, BRET signal values were converted into percentage of activation using the non-stimulated control as 0% and AngII maximal response as 100%. Sigmoidal concentration-response curves were generated with those normalized values using a 4-parameter logistic equation (IDBS ActivityBase software), to determine EC50 of the different compounds. In the case of antagonist response analysis, BRET signal values were converted into percentage of inhibition using the fixed dose of AngII (corresponding to the EC50) as 0% and non-stimulated control as 100%. Sigmoidal concentration-response curves were generated with those normalized values using a 4-parameter logistic equation (IDBS ActivityBase software), to determine IC50 of the different compounds.

hAT1R [2] = biological target: T2, hAT1R; experiment: BRET β-arrestin2 biosensor assay, higher receptor expression (hAT1R 5 ng/well), HEK293 cells; details: for pEC50: High AT1R Expression

Structure (SMILES)	pEC50 (AGTR1)	DiscoveRx β-arrestin2 Ymax (%) (AGTR1)	pEC50 (hAT1R [1])	BRET β-Arrestin2 High AT1R Expression Ymax (%) (hAT1R [2])	pEC50 (hAT1R [2])
CCCCC(=O)N(Cc1ccc(-c2cc(-c3ccccc3)ccc2-c2nn[nH]n2)cc1)C(C)(C)C(=O)O [Example 268, 2-(N-((6′-(2H-Tetrazol-5-yl)-[1,1′:3′,1″-terphenyl]-4-yl)methyl)pentanamido)-2-methylpropanoic acid]	6.20	39.8%	5.96	73.8%	5.99
CCCCC(=O)N(Cc1ccc(-c2cc(-c3ccccc3)ccc2-c2nn[nH]n2)cc1)C1(C(=O)O)CC1 [Example 269]	5.18	14.2%	< 4.00	58.7%	4.51
CCCCC(=O)N(Cc1ccc(-c2cc(-c3ccccc3)ccc2-c2nn[nH]n2)cc1)C1(C(=O)O)CCC1 [Example 270]	5.18	28.6%	5.33	74.3%	4.89
CCCCC(=O)N(Cc1ccc(-c2cc(-c3ccccc3)ccc2-c2nn[nH]n2)cc1)C1(C(=O)O)CCCC1 [Example 271]	6.42	45.5%	6.23	80.3%	6.25
CCCCC(=O)N(Cc1ccc(-c2cc(-c3ccccc3)ccc2-c2nn[nH]n2)cc1)C1(C(=O)O)CCCCC1 [Example 272]	7.78	43.5%	< 4.00	84.0%	7.82
CCCCC(=O)N(Cc1ccc(-c2cc(-c3ccccc3)ccc2-c2nn[nH]n2)nc1)C1(C(=O)O)CCCCC1 [Example 273]	7.67	39.3%	6.81	88.1%	7.63
CCCCC(=O)N(Cc1ccc(-c2cc(-c3ccccc3)ccc2-c2nn[nH]n2)cn1)C1(C(=O)O)CCCCC1 [Example 274]	6.60	37.5%	5.83	82.5%	6.55
CCCCC(=O)N(Cc1ccc(-c2cc(-c3ccccc3)ccc2-c2nn[nH]n2)cc1)C1(C(=O)O)CCC(C)(C)CC1 [Example 275, 1-(N-((6′-(2H-Tetrazol-5-yl)-[1,1′:3′,1″-terphenyl]-4-yl)methyl)pentan-amido)-4,4-dimethylcyclohexanecarboxylic acid]	7.58	50.9%	< 4.00	71.5%	7.67
CCCCC(=O)N(Cc1ccc(-c2cc(-c3ccccc3)ccc2-c2nn[nH]n2)cc1)C1(C(=O)O)CCOCC1 [Example 276]	7.30	50.9%	6.40	73.6%	7.11
CCCCC(=O)N(Cc1ccc(-c2cc(-c3ccccc3)ccc2-c2nn[nH]n2)cc1)C1(C(=O)O)CCCCCC1 [Example 277]	7.44	46.0%	< 4.00	79.4%	7.54
CCCCC(=O)N(Cc1ccc(-c2cc(-c3ccccc3)ccc2-c2nn[nH]n2)cc1)[C@]1(C(=O)O)CC[C@@H](C)CC1 [Example 278]	7.35	51.9%	5.92	87.2%	7.89
CCCCC(=O)N(Cc1ccc(-c2cc(-c3ccccc3)ccc2-c2nn[nH]n2)cc1)C1(C(=O)O)Cc2ccccc2C1 [Example 279]	6.72	33.7%	< 4.00	82.6%	6.68
CCCCC(=O)N(Cc1ccc(-c2cc(-c3ccccc3)ccc2-c2noc(=O)[nH]2)cc1)C1(C(=O)OC)CCCCC1 [Example 280, Methyl 1-(N-((6′-(5-oxo-4,5-dihydro-1,2,4-oxadiazol-3-yl)-[1,1′:3′,1″-terphenyl]-4-yl)methyl)pentanamido)cyclohexanecarboxylate]	6.04	35.2%	5.54	75.7%	6.16
CCCCC(=O)N(Cc1ccc(-c2cc(-c3ccccc3)ccc2-c2noc(=O)[nH]2)cc1)C1(C(=O)O)CCCCC1 [Example 281]	7.38	47.4%	6.64	93.1%	7.98
CCCCC(=O)N(Cc1ccc(-c2cc(-c3ccccc3)ccc2-c2nn[nH]n2)cc1)[C@]1(C(=O)O)CC[C@@H](O)CC1 [Example 283, (1R,4R)-1-(N-((6′-(2H-Tetrazol-5-yl)-[1,1′:3′,1″-terphenyl]-4-yl)methyl)pentan-amido)-4-hydroxycyclohexanecarboxylic acid]	7.35	57.5%	6.81	88.5%	7.64
CCCCC(=O)N(Cc1ccc(-c2cc(-c3ccccc3)ccc2-c2nn[nH]n2)cc1)[C@]1(C(=O)O)CC[C@H](O)CC1 [Example 284, (1S,4S)-1-(N-((6′-(2H-Tetrazol-5-yl)-[1,1′:3′,1″-terphenyl]-4-yl)methyl)pentanamido)-4-hydroxycyclohexanecarboxylic acid]	7.68	62.7%	6.82	92.9%	7.48
CCCCc1nc(Cl)c(C(=O)O)n1Cc1ccc(-c2cc(-c3cc(C)ccn3)ccc2-c2nn[nH]n2)cc1 [Example 420]	8.19	73.6%	7.10		
CCCCc1nc(Cl)c(C(=O)O)n1Cc1ccc(-c2cc(-c3cc(OC)ccn3)ccc2-c2nn[nH]n2)cc1 [Example 421]	8.03	38.5%	7.03		
CCCCc1nc(Cl)c(C(=O)O)n1Cc1ccc(-c2cc(-c3cc(N(C)C)ccn3)ccc2-c2nn[nH]n2)cc1 [Example 422, 2-butyl-4-chloro-1-((5′-(4-(dimethylamino)pyridin-2-yl)-2′-(2H-tetrazol-5-yl)-[1,1′-biphenyl]-4-yl)methyl)-1H-imidazole-5-carboxylic acid]	7.16	26.7%	6.68		
